According to patent publication US9562044B2, “2-acylaminothiazole derivative or salt thereof” (ASTELLAS PHARMA INC., priority 2013, dated 2017):
Structures can show the parent of a compound that is named as a salt.

What was measured:
[1] = system: isolated rat bladder; experiment: Transmural electrical field stimulation-induced contraction of isolated rat bladder; settings: AUC of contractile response, value before treatment = 100%, SD female rat bladder strip, read-out: Enhancement rate of isolated bladder contraction (% of pre)
Description: Effects on Transmural Electrical Field Stimulation-Induced Contraction of Isolated Rat Bladder
As an effect on the nerve stimulation-dependent bladder contraction in vitro, the effect of the Example compound of the present invention in the transmural electrical field stimulation-induced contraction of isolated rat bladder was measured by the following method. That is, from the bladder isolated from a Spraque-Dawley (SD) female rat (Japan SLC, Inc.), a longitudinal bladder strip having a width of about 2 mm and a length of about 10 mm was prepared. The prepared bladder strip was suspended in an organ bath filled with 10 mL of a Krebs-Henseleit solution. The Krebs-Henseleit solution was bubbled with 95% O2 and 5% CO2, and kept at 37° C. After stabilization at an initial tension of 1 g, contraction was induced twice with 60 mM KCl. The strip was washed with the Krebs-Henseleit solution and stabilized, and then contraction was induced with transmural electrical field stimulation at 20 V (stimulation frequency of 8 Hz, pulse width of 0.3 msec, and stimulation time of 10 seconds) by an electrical stimulation device (Nihon Kohden Corporation). At an interval of 2 minutes, transmural electrical field stimulation was repeated and the voltage was adjusted to make the contractile amplitude about 50% of the contractile response by 20 V. After stabilization of the contraction by the transmural electrical field stimulation, 10 μL of the test substance (final concentrations of 3 μM, 10 μM, and 30 μM), which had been dissolved in 100% dimethylsulfoxide in advance was added. The test substance was cumulatively administered at the next concentration after the contractile response at a lower concentration had been stabilized. The responses were put into a personal computer through PowerLab (registered trademark) (AD Instruments), and analyzed with LabChart (registered trademark) (AD Instruments). The area under the response of each contractile response (area under curve, AUC) was calculated and the value before the treatment with the test substance was set to 100%. Based on this, the enhancement rate of the isolated bladder contraction (% of pre) after the treatment with the test substance was calculated.
The enhancement rates of the isolated bladder contraction due to several 10 μM Example compounds which are the compounds of the formula (I) are shown in Table 2.

[2] = system: intravesical pressure in anesthetized rats; experiment: Pelvic nerve electrical stimulation-induced elevation of intravesical pressure in anesthetized rats; type: in vivo, rat; settings: 3 mg/kg intravenous; maximum effect during 1 hour after administration; pre-treatment AUC = 100%; SD female rats
Description: Effect on Pelvic Nerve Electrical Stimulation-Induced Elevation of Intravesical Pressure in Anesthetized Rats
As an effect on the nerve stimulation-dependent bladder contraction in vivo, the effect of the Example compound of the present invention in the pelvic nerve electrical stimulation-induced elevation of the intravesical pressure in rats was measured by the following method. That is, using SD female rats (Japan SLC, Inc.), the lower abdomen was incised in the midline under anesthesia with pentobarbital (50 mg/kg ip). The ureter on both sides was ligated and cut, and then a cannula for measuring the intravesical pressure (PE-50) was inserted into the bladder from the external urethral orifice and fixed by a clip. About 200 μL of physiological saline was injected through the cannula inserted into the bladder, the other side was then connected to a pressure transducer, and the intravesical pressure was measured. Under observation using a stereomicroscope, the pelvic nerve near the bladder was isolated and an electrode (Unique Medical) for nerve stimulation was placed. The abdominal cavity was filled with mineral oil (MP BIOMEDICALS). […] After the elevation of the intravesical pressure by electrical stimulation was stabilized three times or more, the test substance (dose of 3 mg/kg) was administered at a volume of 1 mL/kg from a catheter placed in the vein and the effect of the test substance on the elevation of the intravesical pressure was measured for 1 hour. […]
The responses were put into a personal computer through PowerLab (registered trademark) (AD Instruments), and analyzed with LabChart (registered trademark). The AUC of each elevation of the intravesical pressure was calculated. The average value of three values before the treatment with the test substance was set to 100%, and the elevation rate of the intravesical pressure (% of pre) after the treatment with the test substance was calculated. […]

Row | SMILES | activity at 10 µM [1] [%] | Elevation rate of intravesical pressure (% of pre) [2]
1 | C[C@@H]1CCCN1Cc1sc(NC(=O)c2cnc(N3CCC(C(=O)O)CC3)cn2)nc1-c1cc(Cl)cs1 [Example 4, 1-(5-{[4-(4-chloro-2-thienyl)-5-{[(2R)-2-methylpyrrolidin-1-yl]methyl}-1,3-thiazol-2-yl]carbamoyl}pyrazin-2-yl)piperidine-4-carboxylic acid dihydrochloride] | 180 | 184 % of pre
2 | CC[C@@H]1CCCN1Cc1sc(NC(=O)c2cnc(N3CCC(C(=O)O)CC3)cn2)nc1-c1cc(F)cc(C(F)(F)F)c1 [Example 115] | 121 | 131 % of pre
3 | CC[C@@H]1CCCN1Cc1sc(NC(=O)c2cnc(N3CCC(C(=O)O)CC3)cn2)nc1-c1ccc(OC)c(C(F)(F)F)c1 [Example 156] | 135 | 130 % of pre
